Experimental data as given in patent US20170340742A1, “A METHOD FOR DELIVERING A SUBSTANCE INTO CELLS” (TECHNISCHE UNIVERSITÄT DARMSTADT, priority 2014, published 2017).
No end group written: not given here. Ahx = NCCCCCC(=O)O

System: living cells
Experiment: Comparative test of cellular penetration of cell-penetrating compounds with and without mediator compounds at low and high pH
Type: cell-based
Set-up: key: −: no uptake detectable; +: low efficiency of uptake detectable; ++: moderate efficiency of uptake detectable; +++: strong de efficiency of uptake detectable; ++++: very strong efficiency of uptake detectable
Conditions: compound 2 μM, 30 min
Protocol: A comparative test of cellular penetration of different cell-penetrating compounds was performed in the presence and absence of different mediator compounds at low and high pH. The cell-penetrating compounds (2 μM) and the mediator compounds (6 μM) were mixed in Hepes buffers at low pH (6.5) and high pH (8.5).
The cell media (DMEM) was removed and exchanged by these solutions and incubated for 30 min. Then the solutions were removed and the cells were embedded back in cell culture media (DMEM) and imaged. The efficiency of uptake in the different conditions was determined.
The determined efficacy is depicted with increasing efficacy from “−” no uptake detectable, “+” low efficiency of uptake detectable, “++” moderate efficiency of uptake detectable, “+++” strong de efficiency of uptake detectable, “++++” very strong efficiency of uptake detectable.

Measured: Efficiency of uptake

TAMRA-Ahx-LGQQQPFPPQQPY ({TAMRA-Ahx}-LGQQQPFPPQQPY)
−: Mediator 1: Curcumin 6 μM, high pH of 8.5 | Mediator 1: Curcumin 6 μM, low pH of 6.5 | Mediator 2: Levothyroxine 6 μM, high pH of 8.5 | Mediator 2: Levothyroxine 6 μM, low pH of 6.5 | no mediator, high pH of 8.5 | no mediator, low pH of 6.5
